For 21 compounds, inhibition and melting point results are on record in patent US20020010182A1, “Piperazine derivatives as tachykinin antagonists” (FUJISAWA PHARMACEUTICAL CO., LTD., priority 1995, published 2002).

The structures appear in SMILES notation. Counter-ions that a name gives are not always drawn. Bounds are passed on as bounds.

One data set deals with T1, h-NK1 receptors (Homo sapiens, UniProt P25103).
T1 construct: expressed in transfected cells; host or cells: CHO cells (permanent expression), crude cell membranes
T1 sequence (P25103 whole entry): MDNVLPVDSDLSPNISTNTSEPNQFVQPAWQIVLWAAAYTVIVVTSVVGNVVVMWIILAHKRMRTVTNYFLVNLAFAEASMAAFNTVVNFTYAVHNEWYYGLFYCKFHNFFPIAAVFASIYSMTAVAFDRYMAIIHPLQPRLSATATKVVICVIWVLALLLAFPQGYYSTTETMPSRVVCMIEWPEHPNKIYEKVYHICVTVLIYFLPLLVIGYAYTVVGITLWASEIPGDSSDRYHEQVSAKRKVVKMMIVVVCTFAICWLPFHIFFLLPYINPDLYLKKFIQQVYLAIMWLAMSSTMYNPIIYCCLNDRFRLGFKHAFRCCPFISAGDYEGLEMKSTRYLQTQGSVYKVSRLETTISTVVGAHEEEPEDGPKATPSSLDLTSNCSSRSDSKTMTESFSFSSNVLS
The data set can be described thus: Evaluation of NK1 antagonist transport efficiency to the central nervous system using a h-NK1 receptor binding assay. The settings on record: 5 min, brain extract of male SD rats 5 min after i.v. injection of test compound, CHO cell membranes expressing h-NK1, read-out: inhibition rate of 125I-BH-Substance P binding to h-NK1 receptors. The protocol:
A. Evaluation of NK1 Antagonist Transport Efficiency to the Cental Nervous System Using a h-NK1 Receptor Binding Assay
(1) Administration of Test Compound and Extraction of the Compound From Brain
Male SD rats were given an i.v. injection of a solution containing a test compound (1 mg/kg). 5 Min later the animals were anesthetized by ether, bled and perfused through the aorta ascendens with 20 ml of saline. The brain was rapidly removed, weighed and homogenized in 4 vol. ice-cold distilled water by using Polytoron (KINEMATICA). To extract the test compound, 500 μl of the homogenate, 100 μl of methanol, 500 μl of 0.1 N NaOH and 4 ml of ethyl acetate were mixed by shaking for 10 min at room temperature. The organic phase (2.5 ml) was recovered by centrifugation at 3,000 rpm for 10 min, dried and dissolved in dimethyl sulfoxide.
(2) h-NK1 Receptor Binding Assay
(a) Crude CHO Cell Membrane Preparation
CHO cells permanently expressing h-NK1 receptors were harvested and homogenized with a Dounce homogenizer at 4° C. in a buffer (0.25 M sucrose, 25 mM Tris-HCl (pH 7.4), 10 mM MgCl2, 1 mM EDTA, 5 μg/ml p-APMSF). The homogenate was centrifuged (500×g, 10 min), and the pellet was resuspended in the same buffer, homogenized, and centrifuged. The two supernatants were combined and centrifuged (100,000×g, 1 hour). The crude cell membranes thus isolated were resuspended in a buffer (25 MM Tris-HCl (pH 7.4), 10 mM MgCl2, 1 mM EDTA, 5 μg/ml p-APMSF) and stored at −80° C. until use.
(b) ^125I-BH-Substance P Binding to the Prepared Membrane
Cell membranes (6 μg/ml) were incubated with ^125I-BH-Substance P (0.1 nM) with or without the extracted compounds in 0.25 ml of a medium (50 mM Tris-HCl (pH 7.4), 5 mM MnCl2, 20 μg/ml chymrostatin, 40 μg/ml bacitracin, 4 μg/ml leupeptin, 5 μg/ml p-APMSF, 200 μg/ml BSA) at 22° C. for 90 min. At the end of the incubation period, the contents were quickly filtered through a Blue Mat 11740 filter (pretreated with 0.1% polyethylenimine for 3 hours prior to use) by using SKATRON Cell Harvester. The filter was then washed with a washing buffer (50 mM Tris-HCl (pH 7.4), 5 mM MnCl2) . The radioactivity was counted by using an auto gamma counter (Packard RIASTAR 5420A). All data presented are specific binding defined as that displaceable by 3 μM unlabeled Substance P.

Regarding `Cc1ccc(C[C@@H]2CN(CCCN3CCOCC3)CCN2C(=O)c2cc(C(F)(F)F)cc(C(F)(F)F)c2)cc1C.Cl.Cl` [53-(1), (2R)-1-[3,5-Bis(trifluoromethyl)benzoyl]-2-(3,4-dimethylbenzyl)-4-(3-morpholinopropyl) piperazine dihydrochloride], the melting point lay in the range of 220 to 230 °C. Further, the inhibition at 1 mg/kg on h-NK1 receptors is greater than 80%.
For `Cc1ccc(C[C@@H]2CN(CC#CCN3CCOCC3)CCN2C(=O)c2cc(C(F)(F)F)cc(C(F)(F)F)c2)cc1C.Cl.Cl` [37-(2), (2R)-4-(4-Morpholino-2-butynyl)-1-[3,5-bis (trifluoromethyl)benzoyl]-2-(3,4-dimethylbenzyl) piperazine dihydrochloride] the same measures were 155 to 162 °C and greater than 80%.
Take `Cl.Cl.O=C(c1cc(C(F)(F)F)cc(C(F)(F)F)c1)N1CCN(C/C=C/CN2CCOCC2)C[C@H]1Cc1ccc2ccccc2c1` [62-(1), (2R)-1-[3,5-Bis(trifluoromethyl)benzoyl]-2-(2-naphthylmethyl)-4-[(E)-4-morpholino-2-butenyl]piperazine dihydrochloride]: the melting point is greater than 230 °C. Besides, the inhibition at 1 mg/kg at h-NK1 receptors is greater than 80%.
For `COCC1CN(CC#CCN2CCN(C(=O)c3cc(C(F)(F)F)cc(C(F)(F)F)c3)[C@H](Cc3ccc(C)c(C)c3)C2)CCO1.Cl.Cl` (stereo partly drawn) [59-(1), (2R)-1-[3,5-Bis(trifluoromethyl)benzoyl]-2-(3,4-dimethylbenzyl)-4-[4-(2-methoxymethylmorpholino)-2-butynyl]piperazine dihydrochloride] the same measures were 150 to 165 °C and greater than 80%.
For `Cl.Cn1cc(CN2CCN(C(=O)c3cc(C(F)(F)F)cc(C(F)(F)F)c3)[C@H](Cc3c[nH]c4ccccc34)C2)cn1` [Example 77, (2R)-1-[3,5-bis (trifluoromethyl)benzoyl]-2-(1H-indol-3-ylmethyl)-4-[(1-methyl-1H-pyrazol-4-yl)methyl]piperazine hydrochloride] the same measures were 122 to 136 °C and greater than 80%.
For `Cc1ccc(C[C@@H]2CN(CC#CCN3CCOCC3(C)C)CCN2C(=O)c2cc(C(F)(F)F)cc(C(F)(F)F)c2)cc1C.Cl.Cl` [Example 59-(3), (2R)-1-[3,5-Bis(trifluoromethyl)benzoyl]-2-(3,4-dimethylbenzyl)-4-[4-(3,3-dimethylmorpholino)-2-butynyl]piperazine dihydrochloride] the same measures were 180 to 190 °C and greater than 80%.
In turn, `Cl.Cl.O=C(c1cc(C(F)(F)F)cc(C(F)(F)F)c1)N1CCN(C/C=C/CN2CCOCC2)C[C@H]1Cc1c[nH]c2ccccc12` [Example 76, (2R)-1-[3,5-Bis(trifluoromethyl)benzoyl]-2-(1H-indol-3-ylmethyl)-4-[(E)-4-morpholino-2-butenyl]piperazine dihydrochloride] registered a melting point of 123 to 128 °C. Moreover, on h-NK1 receptors, the inhibition at 1 mg/kg is greater than 80%.
For `Cc1ccc(C[C@@H]2CN(Cc3cnn(C)c3)CCN2C(=O)c2cc(C(F)(F)F)cc(C(F)(F)F)c2)cc1C.Cl` [Example 51, (2R)-1-[3,5-bis(trifluoromethyl)benzoyl]-2-(3,4-dimethylbenzyl)-4-[(1-methyl-1H-pyrazol-4-yl)methyl]piperazine hydrochloride] the same measures were 243 to 244 °C and greater than 80%.
Compound `Cc1ccc(C[C@@H]2CN(C/C=C/CN3CCOCC3)CCN2C(=O)c2cc(C(F)(F)F)cc(C(F)(F)F)c2)cc1C.Cl.Cl` [Example 75, (2R)-1-[3,5-bis(trifluoromethyl)benzoyl]-2-(3,4-dimethylbenzyl)-4-[(E)-4-morpholino-2-butenyl]piperazine dihydrochloride] had a melting point of 236 to 242 °C. Also, on h-NK1 receptors, the inhibition at 1 mg/kg is greater than 80%.
For `Cl.Cl.O=C(c1cc(C(F)(F)F)cc(C(F)(F)F)c1)N1CCN(CC#CCN2CCSCC2)C[C@H]1Cc1c[nH]c2ccccc12` [Example 37-(4), (2R)-4-(4-Thiomorpholino-2-butynyl)-1-[3,5-bis (trifluoromethyl)benzoyl]-2-(1H-indol-3-ylmethyl) piperazine dihydrochloride], in that order: 166 to 170 °C and greater than 80%.
For `Cc1ccc(C[C@@H]2CN(CCCCCN3CCOCC3)CCN2C(=O)c2cc(C(F)(F)F)cc(C(F)(F)F)c2)cc1C.Cl.Cl` [Example 74, (2R)-1-[3,5-Bis(trifluoromethyl)benzoyl]-2-(3,4-dimethylbenzyl)-4-(5-morpholinopentyl) piperazine dihydrochloride] the same measures were 235 to 238 °C and greater than 80%.
In the case of `O=C(c1cc(C(F)(F)F)cc(C(F)(F)F)c1)N1CCN(CCCNN2CCOCC2)C[C@H]1Cc1ccc2ccccc2c1` [82-(9), (2R)-1-[3,5-Bis(trifluoromethyl)benzoyl]-2-(2-naphthylmethyl)-4-(N-morpholino-3-aminopropyl) piperazine dihydrochloride], the inhibition at 1 mg/kg at h-NK1 receptors is greater than 80%.
Same read-out and setting: the result for `O=C(c1cc(C(F)(F)F)cc(C(F)(F)F)c1)N1CCN(CCCCCN2CCOCC2)C[C@H]1Cc1c[nH]c2ccccc12` [Example 55, (2R)-1-[3,5-Bis(trifluoromethyl)benzoyl]-2-(1H-indol-3-ylmethyl)-4-(5-morpholinopentyl) piperazine dihydrochloride] reads greater than 80%.
The same measure, in the same setting: as for `Cc1ccc(C[C@@H]2CN(CCCN3C[C@@H](C)O[C@@H](C)C3)CCN2C(=O)c2cc(C(F)(F)F)cc(C(F)(F)F)c2)cc1C` [Example 81, (2R)-1-[3,5-Bis(trifluoromethyl)benzoyl]-2-(3,4-dimethylbenzyl)-4-[3-(cis-2,6-dimethylmorpholino)propyl]piperazine dihydrochloride], the figure is greater than 80%.
Same read-out and setting: as for `Cc1ccc(C[C@@H]2CN(CCN3CCCOCC3)CCN2C(=O)c2cc(C(F)(F)F)cc(C(F)(F)F)c2)cc1C` [Example 67-(6), (2R)-1-[3,5-Bis(trifluoromethyl)benzoyl]-2-(3,4-dimethylbenzyl)-4-(2-homomorpholinoethyl) piperazine dihydrochloride], the figure is greater than 80%; as for `Cc1ccc(C[C@@H]2CN(CCCN3CCCOCC3)CCN2C(=O)c2cc(C(F)(F)F)cc(C(F)(F)F)c2)cc1C` [Example 67-(7), (2R)-1-[3,5-Bis(trifluoromethyl)benzoyl]-2-(3,4-dimethylbenzyl)-4-(3-homomorpholinopropyl) piperazine dihydrochloride], greater than 80%; as for `O=C(c1cc(C(F)(F)F)cc(C(F)(F)F)c1)N1CCN(CCCN2CCOCC2)C[C@H]1Cc1ccc(Cl)c(Cl)c1` [Example 44-(5), (2R)-1-[3,5-Bis(trifluoromethyl)benzoyl]-2-(3,4-dichlorobenzyl)-4-(3-morpholinopropyl) piperazine dihydrochloride], greater than 80%.
As for `O=C(c1cc(C(F)(F)F)cc(C(F)(F)F)c1)N1CCN(CC#CCN2CCOCC2)C[C@H]1Cc1ccc(Cl)c(Cl)c1` [Example 36, (2R)-1-[3,5-bis(trifluoromethyl)benzoyl]-2-(3,4-dichlorobenzyl)-4-(4-morpholino-2-butynyl) piperazine], the inhibition at 1 mg/kg at h-NK1 receptors is greater than 80%.
Same read-out and setting: the result for `O=C(c1cc(C(F)(F)F)cc(C(F)(F)F)c1)N1CCN(CCCN2CCC(c3ccccc3)CC2)C[C@H]1Cc1c[nH]c2ccccc12` [Example 46, (2R)-1-[3,5-bis(trifluoromethyl)benzoyl]-2-(1H-indol-3-ylmethyl)-4-[3-(4-phenylpiperidino)propyl]piperazine] reads greater than 80%; that for `O=C(c1cc(C(F)(F)F)cc(C(F)(F)F)c1)N1CCN(CCCNCc2cccnc2)C[C@H]1Cc1ccc2ccccc2c1` [82-(12), (2R)-1-[3,5-Bis(trifluoromethyl)benzoyl]-2-(2-naphthylmethyl)-4-[N-(3-pyridylmethyl)-3-aminopropyl]piperazine trihydrochloride], greater than 80%.
The same measure, in the same setting: as for `O=C(c1cc(C(F)(F)F)cc(C(F)(F)F)c1)N1CCN(C/C=C\CN2CCOCC2)C[C@H]1Cc1c[nH]c2ccccc12` [Example 71, (2R) -1-[3,5-bis(trifluoromethyl)benzoyl]-2-(1H-indol-3-ylmethyl)-4-[(Z)-4-morpholino-2-butenyl]piperazine dihydrochloride], the figure is greater than 80%.
